What all share (type): biochemical
For one test, the target named is PKA (Homo sapiens, UniProt P17612). As to the kind of experiment: In vitro inhibitory activity assay for PKA (ADP-Glo), reported as selectivity ratio vs ROCK2. As to conditions: Ki value for PKA divided by Ki value of ROCK2. A digest of the protocol:
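ADP-Glo PKA assay at 25° C in 40 mM Tris pH7.5, 20 mM MgCl2, 0.1 mg/ml BSA, 50 μM DTT, 260 μM kemptide, 1% DMSO. Compound preincubated 30 mins with enzyme, then 30 minute reaction at 10 μM ATP final; luminescence read. IC50 from sigmoidal fit, Ki via Cheng-Prusoff, reported as selectivity ratio vs ROCK-2.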

Another test concerns the target ROCK1 (Homo sapiens, UniProt Q13464). As to the kind of experiment: In vitro inhibitory activity assay ROCK1 (ADP-Glo). As to conditions: ATP 200 μM, Cheng-Prusoff; read-out: ROCK 1 (Ki, range of activity). The method, boiled down:
(§1)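 ROCK1 or ROCK2 preincubated 30 min with compound (1% DMSO) at 25 °C, then run 1 h with 2.5 μM myelin basic protein and 200 μM ATP in Tris pH 7.5/MgCl2 buffer. ADP detected by ADP-Glo luminescence; IC50 from variable-slope fit, converted to Ki by Cheng–Prusoff.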

The target of a further test is ROCK2 (Homo sapiens, UniProt O75116). The test is described as follows: In vitro inhibitory activity assay ROCK2 (ADP-Glo). The settings on record: ATP 200 μM, Cheng-Prusoff; read-out: ROCK2 (Ki, range of activity). The method, boiled down:
as §1
On the technique in general: ADP-Glo first removes unused ATP, then detects ADP through luciferase.

These results are taken from patent US20240092790A1, “DIHYDROFUROPYRIDINE DERIVATIVES AS RHO- KINASE INHIBITORS” (CHIESI FARMACEUTICI S.P.A., priority 2020, published 2024).

Chain of ROCK1 (Q13464 whole entry): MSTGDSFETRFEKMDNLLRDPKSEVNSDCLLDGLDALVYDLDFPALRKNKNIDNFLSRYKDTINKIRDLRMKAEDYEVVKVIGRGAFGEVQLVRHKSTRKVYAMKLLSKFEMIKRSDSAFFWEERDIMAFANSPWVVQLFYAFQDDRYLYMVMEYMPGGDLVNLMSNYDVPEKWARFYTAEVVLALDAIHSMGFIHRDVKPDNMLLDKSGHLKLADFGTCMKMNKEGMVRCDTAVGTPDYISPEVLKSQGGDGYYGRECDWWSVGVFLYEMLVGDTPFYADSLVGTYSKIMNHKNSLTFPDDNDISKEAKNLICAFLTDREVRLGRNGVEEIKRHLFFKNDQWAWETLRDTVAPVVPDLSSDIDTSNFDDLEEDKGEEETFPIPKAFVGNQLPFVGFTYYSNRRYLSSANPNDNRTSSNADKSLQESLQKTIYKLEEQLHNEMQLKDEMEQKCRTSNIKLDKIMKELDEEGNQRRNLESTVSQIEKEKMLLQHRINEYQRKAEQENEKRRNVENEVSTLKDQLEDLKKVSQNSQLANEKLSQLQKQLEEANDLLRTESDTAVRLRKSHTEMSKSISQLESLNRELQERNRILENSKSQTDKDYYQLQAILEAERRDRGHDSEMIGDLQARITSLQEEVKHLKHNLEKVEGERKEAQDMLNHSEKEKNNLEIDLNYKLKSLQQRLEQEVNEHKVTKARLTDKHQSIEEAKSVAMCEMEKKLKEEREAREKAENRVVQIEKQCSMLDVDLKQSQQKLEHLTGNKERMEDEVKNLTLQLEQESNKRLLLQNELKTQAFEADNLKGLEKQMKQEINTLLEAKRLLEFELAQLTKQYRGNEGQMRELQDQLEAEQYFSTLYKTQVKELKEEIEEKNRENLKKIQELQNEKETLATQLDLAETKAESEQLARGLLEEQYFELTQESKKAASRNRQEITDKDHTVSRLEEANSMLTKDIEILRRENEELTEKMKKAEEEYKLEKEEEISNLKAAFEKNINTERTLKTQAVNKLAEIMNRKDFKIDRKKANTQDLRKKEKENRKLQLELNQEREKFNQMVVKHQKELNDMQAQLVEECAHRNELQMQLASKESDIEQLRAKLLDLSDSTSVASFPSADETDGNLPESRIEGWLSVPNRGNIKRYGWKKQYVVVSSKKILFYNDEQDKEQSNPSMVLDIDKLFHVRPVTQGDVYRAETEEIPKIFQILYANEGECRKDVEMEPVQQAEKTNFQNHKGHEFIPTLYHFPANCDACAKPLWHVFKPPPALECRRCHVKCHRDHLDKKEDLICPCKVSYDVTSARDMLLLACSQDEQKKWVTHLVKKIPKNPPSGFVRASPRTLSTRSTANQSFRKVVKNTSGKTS
Chain of ROCK2 (O75116 whole entry): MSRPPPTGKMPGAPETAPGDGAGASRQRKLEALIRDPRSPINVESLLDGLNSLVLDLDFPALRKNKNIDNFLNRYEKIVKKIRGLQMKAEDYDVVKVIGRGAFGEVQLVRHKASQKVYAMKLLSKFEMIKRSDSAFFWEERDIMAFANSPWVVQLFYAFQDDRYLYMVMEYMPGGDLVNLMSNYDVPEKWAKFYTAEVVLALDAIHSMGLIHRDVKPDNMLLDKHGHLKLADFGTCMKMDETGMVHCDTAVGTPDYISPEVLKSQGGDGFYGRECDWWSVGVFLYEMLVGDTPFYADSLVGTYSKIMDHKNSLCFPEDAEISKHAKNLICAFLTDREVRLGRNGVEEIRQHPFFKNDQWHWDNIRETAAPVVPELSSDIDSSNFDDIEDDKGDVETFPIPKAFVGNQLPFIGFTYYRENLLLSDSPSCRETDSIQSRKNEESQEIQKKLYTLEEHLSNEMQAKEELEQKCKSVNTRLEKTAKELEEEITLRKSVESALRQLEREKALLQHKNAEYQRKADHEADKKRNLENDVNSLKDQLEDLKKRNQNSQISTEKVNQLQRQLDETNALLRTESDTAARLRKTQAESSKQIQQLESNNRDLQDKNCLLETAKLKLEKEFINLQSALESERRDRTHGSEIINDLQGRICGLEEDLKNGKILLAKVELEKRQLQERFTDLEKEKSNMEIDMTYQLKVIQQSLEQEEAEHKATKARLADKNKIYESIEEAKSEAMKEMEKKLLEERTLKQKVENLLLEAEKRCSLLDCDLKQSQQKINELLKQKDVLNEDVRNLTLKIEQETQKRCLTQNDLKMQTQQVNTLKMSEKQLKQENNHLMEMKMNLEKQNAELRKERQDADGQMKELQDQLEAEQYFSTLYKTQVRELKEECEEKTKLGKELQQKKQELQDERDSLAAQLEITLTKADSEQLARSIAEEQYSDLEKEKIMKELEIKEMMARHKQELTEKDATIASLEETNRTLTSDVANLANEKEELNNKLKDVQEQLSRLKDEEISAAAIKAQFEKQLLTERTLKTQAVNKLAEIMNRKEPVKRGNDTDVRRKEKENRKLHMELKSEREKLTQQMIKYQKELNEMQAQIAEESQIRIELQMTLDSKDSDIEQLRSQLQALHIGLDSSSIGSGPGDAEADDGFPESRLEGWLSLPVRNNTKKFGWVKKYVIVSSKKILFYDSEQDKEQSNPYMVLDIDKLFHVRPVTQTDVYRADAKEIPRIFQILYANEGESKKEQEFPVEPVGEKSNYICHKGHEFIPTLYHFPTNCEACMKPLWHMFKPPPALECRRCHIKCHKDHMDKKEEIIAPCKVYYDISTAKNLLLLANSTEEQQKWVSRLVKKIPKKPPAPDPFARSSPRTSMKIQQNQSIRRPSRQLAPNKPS

With `COCCNC(=O)c1cccc(CNc2ncc(-c3ccnc(N)n3)c3c2CCO3)c1` [Example 9, 3-(((7-(2-Aminopyrimidin-4-yl)-2,3-dihydrofuro[3,2-c]pyridin-4-yl)amino)methyl)-N-(2-methoxyethyl)benzamide], on PKA, the “Ratio (PKA/ROCK2)” value was “*** (ratio≥10)”. Moreover, the Ki at ROCK1 and at ROCK2 was no more than 3 nM throughout.
`CO[C@H]1C[C@@H](NC(=O)c2cccc(CNc3ncc(-c4ccnc(N)n4)c4c3CCO4)c2)C1` [Example 18, 3-(((7-(2-aminopyrimidin-4-yl)-2,3-dihydrofuro[3,2-c]pyridin-4-yl)amino)methyl)-N-((1s,3s)-3-methoxycyclobutyl)benzamide]: on PKA, the “Ratio (PKA/ROCK2)” value is on record as “*** (ratio≥10)”. Further, the Ki on ROCK1 and at ROCK2 was no more than 3 nM in each case.
On to `CC(C)(C)N1CC(CNC(=O)c2cccc(CNc3ncc(-c4ccnc(N)n4)c4c3CCO4)c2)CC1=O` (single isomer, unassigned) [Example 33, 3-(((7-(2-Aminopyrimidin-4-yl)-2,3-dihydrofuro[3,2-c]pyridin-4-yl)amino)methyl)-N-((1-(tert-butyl)-5-oxopyrrolidin-3-yl)methyl)benzamide], for which the “Ratio (PKA/ROCK2)” value at PKA was “*** (ratio≥10)”. In addition, the Ki at ROCK1 and at ROCK2 was no more than 3 nM each time.
As for `COCCCNC(=O)c1cccc(CNc2ncc(-c3ccnc(N)n3)c3c2CCO3)c1F` [Example 55, 3-(((7-(2-Aminopyrimidin-4-yl)-2,3-dihydrofuro[3,2-c]pyridin-4-yl)amino)methyl)-2-fluoro-N-(3-methoxypropyl)benzamide], at PKA, the “Ratio (PKA/ROCK2)” value was “*** (ratio≥10)”. The values for the Ki on ROCK1 and at ROCK2 were 3 to 30 nM and no more than 3 nM, respectively.
The matching figures for `Nc1nccc(-c2cnc(NCc3cc(C(=O)NC4CCOCC4)ccc3F)c3c2OCC3)n1` [Example 61, 3-(((7-(2-Aminopyrimidin-4-yl)-2,3-dihydrofuro[3,2-c]pyridin-4-yl)amino)methyl)-4-fluoro-N-(tetrahydro-2H-pyran-4-yl)benzamide]: “*** (ratio≥10)”, greater than 30 nM and 3 to 30 nM.
The matching figures for `CO[C@H]1C[C@H](CNC(=O)c2cccc(CNc3ncc(-c4ccnc(N)n4)c4c3CCO4)c2)C1` [Example 39, 3-(((7-(2-Aminopyrimidin-4-yl)-2,3-dihydrofuro[3,2-c]pyridin-4-yl)amino)methyl)-N-(((1R,3R)-3-methoxycyclobutyl)methyl)benzamide]: “*** (ratio≥10)”, no more than 3 nM and no more than 3 nM.
The like results for `COC(C)(C)CCNC(=O)c1cccc(CNc2ncc(-c3ccnc(N)n3)c3c2CCO3)c1` [Example 36, 3-(((7-(2-Aminopyrimidin-4-yl)-2,3-dihydrofuro[3,2-c]pyridin-4-yl)amino)methyl)-N-(3-methoxy-3-methylbutyl)benzamide] were, in that order, “*** (ratio≥10)”, no more than 3 nM and no more than 3 nM.
Regarding `Nc1nccc(-c2cnc(NCc3cccc(C(=O)N[C@H]4C[C@H](F)C4)c3)c3c2OCC3)n1` [Example 49, 3-(((7-(2-Aminopyrimidin-4-yl)-2,3-dihydrofuro[3,2-c]pyridin-4-yl)amino)methyl)-N-((1r,3r)-3-fluorocyclobutyl)benzamide], the “Ratio (PKA/ROCK2)” value at PKA was “*** (ratio≥10)”. Moreover, the Ki at ROCK1 and at ROCK2 was no more than 3 nM each time.
Consider `Nc1nccc(-c2cnc(NCc3cccc(C(=O)NC4CC(F)(F)C4)c3)c3c2OCC3)n1` [Example 10, 3-(((7-(2-Aminopyrimidin-4-yl)-2,3-dihydrofuro[3,2-c]pyridin-4-yl)amino)methyl)-N-(3,3-difluorocyclobutyl)benzamide], for which the “Ratio (PKA/ROCK2)” value on PKA is “** (5≤ratio<10)”. For the same compound, the Ki at ROCK1 and at ROCK2 was no more than 3 nM each time.
Take `Nc1nccc(-c2cnc(NCc3cccc(C(=O)NCCCN4CCOCC4)c3)c3c2OCC3)n1` [Example 16, 3-(((7-(2-Aminopyrimidin-4-yl)-2,3-dihydrofuro[3,2-c]pyridin-4-yl)amino)methyl)-N-(3-morpholinopropyl)benzamide]: the “Ratio (PKA/ROCK2)” value at PKA was “*** (ratio≥10)”. Also, the Ki on ROCK1 and at ROCK2 was no more than 3 nM in each case.
As for `CN1CCOC(CNC(=O)c2cccc(CNc3ncc(-c4ccnc(N)n4)c4c3CCO4)c2)C1` (single isomer, unassigned) [Example 35, 3-(((7-(2-Aminopyrimidin-4-yl)-2,3-dihydrofuro[3,2-c]pyridin-4-yl)amino)methyl)-N-((4-methylmorpholin-2-yl)methyl)benzamide], the “Ratio (PKA/ROCK2)” value on PKA is recorded as “*** (ratio≥10)”. Also, the inhibition constant (Ki) at ROCK1 and at ROCK2 was no more than 3 nM throughout.
For the compound `CNC(=O)c1cccc(CNc2ncc(-c3ccnc(N)n3)c3c2CCO3)n1` [Example 63, 6-(((7-(2-Aminopyrimidin-4-yl)-2,3-dihydrofuro[3,2-c]pyridin-4-yl)amino)methyl)-N-methylpicolinamide], the “Ratio (PKA/ROCK2)” value on PKA is “*** (ratio≥10)”. Also, the figures for the Ki at ROCK1 and on ROCK2 were greater than 30 nM and 3 to 30 nM, respectively.
The like results for `Nc1nccc(-c2cnc(NCc3cccc(C(=O)NC4CC4)c3)c3c2OCC3)n1` [Example 4, 3-(((7-(2-Aminopyrimidin-4-yl)-2,3-dihydrofuro[3,2-c]pyridin-4-yl)amino)methyl)-N-cyclopropylbenzamide] were, in that order, “*** (ratio≥10)”, no more than 3 nM and no more than 3 nM.
The matching figures for `CC(C)NC(=O)c1cccc(CNc2ncc(-c3ccnc(N)n3)c3c2CCO3)c1` [Example 11, 3-(((7-(2-Aminopyrimidin-4-yl)-2,3-dihydrofuro[3,2-c]pyridin-4-yl)amino)methyl)-N-isopropylbenzamide]: “*** (ratio≥10)”, 3 to 30 nM and 3 to 30 nM.
